Assay results taken from PubChem BioAssay AID1918932 (Molecular Pharmacology Branch, DTP, NCI, 2023).

System: 171881-019-R-J1-PDC complex spheroid viability
Test: Anticancer human tumor 171881-019-R-J1-PDC patient-derived invasive breast carcinoma cell line growth inhibition
Settings: for IC50: curve of first compound; for viability, T/C: stronger effect = lower value
Summary of the method: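 Multicellular complex spheroids of tumor cells with human endothelial cells (HUVEC) and mesenchymal stem cells; the LSD1 inhibitor iadademstat was combined with standard-of-care or investigational agents. Top concentration at or near clinical Cmax, half-log dilutions; final DMSO ≤0.25%.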

[1] = second compound 0.1 µM, first compound 0.0316 µM
[2] = second compound 0.1 µM, first compound 0.1 µM
[3] = second compound 0.1 µM, first compound 0.316 µM
[4] = second compound 0.1 µM, first compound 1 µM
[5] = second compound 0.316 µM, first compound 0.0316 µM
[6] = second compound 0.316 µM, first compound 0.1 µM
[7] = second compound 0.316 µM, first compound 0.316 µM
[8] = second compound 0.316 µM, first compound 1 µM
[9] = second compound 1 µM, first compound 0.0316 µM
[10] = second compound 1 µM, first compound 0.1 µM
[11] = second compound 1 µM, first compound 0.316 µM
[12] = second compound 1 µM, first compound 1 µM
[13] = second compound 3.16 µM, first compound 0.0316 µM
[14] = second compound 3.16 µM, first compound 0.1 µM
[15] = second compound 3.16 µM, first compound 0.316 µM
[16] = second compound 3.16 µM, first compound 1 µM
[17] = second compound 10 µM, first compound 0.0316 µM
[18] = second compound 10 µM, first compound 0.1 µM
[19] = second compound 10 µM, first compound 0.316 µM
[20] = second compound 10 µM, first compound 1 µM
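Further: spheroids exposed to agents for 7 days after 3 days growth.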

| SMILES | IC50 (second compound 0.1 µM) | IC50 (second compound 0.316 µM) | IC50 (second compound 1 µM) | IC50 (second compound 3.16 µM) | IC50 (second compound 10 µM) | viability, T/C [1] | viability, T/C [2] | viability, T/C [3] | viability, T/C [4] | viability, T/C [5] | viability, T/C [6] | viability, T/C [7] | viability, T/C [8] | viability, T/C [9] | viability, T/C [10] | viability, T/C [11] | viability, T/C [12] | viability, T/C [13] | viability, T/C [14] | viability, T/C [15] | further results |
| --- | --- | --- | --- | --- | --- | --- | --- | --- | --- | --- | --- | --- | --- | --- | --- | --- | --- | --- | --- | --- | --- |
| O=C(C=Cn1cnc(-c2cc(C(F)(F)F)cc(C(F)(F)F)c2)n1)NNc1cnccn1 + NC1CC1c1ccc(-c2cccc(O)c2)cc1 | < 0.00316 µM | < 0.00316 µM | < 0.00316 µM | < 0.00316 µM | < 0.00316 µM | 4.97% | 2.14% | 2.1% | 1.99% | 5.36% | 2.27% | 2.08% | 1.91% | 9.98% | 2.64% | 2.11% | 1.82% | 5.43% | 2.42% | 2.5% | viability, T/C (second compound 0.1 µM, first compound 0.00316 µM): 19.1%; viability, T/C (second compound 0.1 µM, first compound 0.01 µM): 13%; viability, T/C (second compound 0.316 µM, first compound 0.00316 µM): 21.3%; viability, T/C (second compound 0.316 µM, first compound 0.01 µM): 14.4%; viability, T/C (second compound 1 µM, first compound 0.00316 µM): 23.4%; viability, T/C (second compound 1 µM, first compound 0.01 µM): 16.1%; viability, T/C (second compound 3.16 µM, first compound 0.00316 µM): 25.9%; viability, T/C (second compound 3.16 µM, first compound 0.01 µM): 17.5%; viability, T/C [16]: 2.17%; viability, T/C (second compound 10 µM, first compound 0.00316 µM): 25%; viability, T/C (second compound 10 µM, first compound 0.01 µM): 16.5%; viability, T/C [17]: 6.08%; viability, T/C [18]: 11.4%; viability, T/C [19]: 6.91%; viability, T/C [20]: 3.16% |
| O=C(c1cc(Cc2n[nH]c(=O)c3ccccc23)ccc1F)N1CCN(C(=O)C2CC2)CC1 + NC1CC1c1ccc(-c2cccc(O)c2)cc1 | 3.7 µM | 4.09 µM | 4.23 µM | 4.4 µM | 3.09 µM | 90.8% | 106% | 98.7% | 88.5% | 101% | 104% | 101% | 88% | 106% | 105% | 102% | 89.5% | 102% | 105% | 101% | viability, T/C (second compound 0.1 µM, first compound 3.16 µM): 54.5%; viability, T/C (second compound 0.1 µM, first compound 10 µM): 22.7%; viability, T/C (second compound 0.316 µM, first compound 3.16 µM): 57.8%; viability, T/C (second compound 0.316 µM, first compound 10 µM): 23.7%; viability, T/C (second compound 1 µM, first compound 3.16 µM): 58.9%; viability, T/C (second compound 1 µM, first compound 10 µM): 24%; viability, T/C [16]: 87%; viability, T/C (second compound 3.16 µM, first compound 3.16 µM): 61%; viability, T/C (second compound 3.16 µM, first compound 10 µM): 23.7%; viability, T/C [17]: 85.7%; viability, T/C [18]: 84.2%; viability, T/C [19]: 83.4%; viability, T/C [20]: 74%; viability, T/C (second compound 10 µM, first compound 3.16 µM): 49.6%; viability, T/C (second compound 10 µM, first compound 10 µM): 18.9% |
